Where two headings read alike, the source gives them in different places. A value given as a limit tells only on which side of the number the result lay.

As usually defined, the IC50 is the concentration needed to halve the response being measured.

In one series the test system is HCC1395 cells. Briefly: HCC1395 cell proliferation (Cell Titer-Glo, 6 days). The format is cell-based. As to conditions: KIF18A-insensitive tumor cells. The procedure:
The inhibitory effect on the KIF18A target by the compounds of the present disclosure was evaluated by testing the inhibitory effect on proliferation of HCC1954 and HCC1395 cells by the compounds of the present disclosure.
HCC1954 (ATCC, CRL-2388) and HCC1395 (ATCC, CRL-2324) cells were cultured separately in RPMI-1640 complete medium (Gibco, A1049101) containing 20% fetal bovine serum (Gibco, 10099141C), 100 U penicillin, and 100 μg/mL streptomycin (Gibco, 15140-122). The Promega kit Cell Titer-Glo (Promega: G7572) was used in this method for test. • 1. HCC1954 (KIF18A-sensitive tumor cells) and HCC1395 (KIF18A-insensitive tumor cells) were cultured separately in T75 cell culture flasks (Corning, 430641), and the medium was placed in a 37° C., 5% CO2 incubator. • 2. When the cell density reached 70% to 80% (about 2 to 3 times per week), cells are passaged with trypsin (0.25% EDTA). • 3. The cell culture flask was taken out and the cells were separated by adding 2 mL of trypsin (0.25% EDTA source) for 5 minutes. • 4. Digestion was stopped by adding 8 mL of RPM1-1640 medium and the cell suspension was transferred to a centrifuge tube and centrifuged at 1000 rpm for 5 minutes. • 5. The cells were resuspended with 5 mL of RPMI-1640 medium. Cell density was adjusted to 5×10^3/mL (HCC1954), and 2.5×10^4/mL (HCC1395), respectively. • 6. 40 μL of cell solution was added to the 384-well plate (Corning, 3765). • 7. The 384-well plate was centrifuged at 1000 rpm for 1 minute. • 8. The cells were cultured overnight in a 37° C., 5% CO2 incubator. • 9. The next day, 40 nL of compound solution was added to the 384-well plate using Echo650. The plate was then placed in a 37° C., 5% CO2 incubator for 6 days. • 10. After 6 days, 20 μL of Cell-Titer-Glo (Promega, G7572) reagent was added per well. • 11. Luminescence values were measured using the EnVision Xcite Multilabel Reader (PerkinElmer, 2105-0020).
The percentage of inhibition of cell proliferation by the test compound at each concentration was calculated by comparing with the values of the control group (0.1% DMSO). The IC50 values of the compounds were obtained by concentration-inhibition rate nonlinear regression analysis of the test compounds using GraphPad Prism 9.
(In general: ATP-based viability assays read luminescence as a measure of living cells.)

A further series addresses hERG channel (Homo sapiens (Human), UniProt Q12809). The experiment in a line: hERG manual patch clamp test. The format is cell-based. On the procedure:
The cells used in this test were the HEK293 cell line transfected with hERG cDNA and stably expressing the hERG channel (#60187, supplied by BPS, passages P3-P23 for experimental studies). The cells were cultured in a medium containing the following components: MEM medium containing 10% (v/v) inactivated fetal calf serum, 1 mM sodium pyruvate, 500 μg/ml geneticin, 0.1 mM non-essential amino acids, and 100 U/m1 penicillin/streptomycin. HEK293 hERG cells were grown in a culture dish containing the above-mentioned medium, cultured in a 37° C., 5% CO2 incubator, and passaged approximately three times per week, with the cell fusion rate between 40% and 80%. 24 to 48 hours prior to electrophysiological experiments, HEK293 hERG cells were transferred to 0.05 mg/ml PDL-pretreated slides, seeded at a density of 1×10^4 cells per well in a 48-well plate, and grown in the same medium and under the same culture conditions. The density of HEK293 hERG cells on each circular slide needs to reach the requirement that most cells are independent and individual. The extracellular fluid components used in the hERG assay were as follows (mM): 145 NaCl, 4 KCl, 2 CaCl2, 1 MgCl2, 10 glucose, and 10 HEPES (pH adjusted to 7.40 with NaOH). The intracellular fluid components were as follows (mM): 130 KCl, 2 MgCl2, 5 EGTA, 10 HEPES and 5 Na2ATP (pH adjusted to 7.25 with KOH). […] Prior to the experiment, the compound was first serially diluted with DMSO to prepare stock solutions at 10, 3, 1, 0.3, and 0.1 mM, which were then further diluted with extracellular fluid to achieve the final test concentrations (in μM). The final concentration of DMSO in compound solutions at various concentrations was between 0.1% and 0.3%. All compound solutions are routinely sonicated for 5 to 10 min and shaken sufficiently to ensure complete dissolution of the compound, and all test solutions are mixed well by rotation for at least 10 min.
Electrophysiological tests were performed using a manual patch clamp system (HEKA EPC-10 signal amplifier and digital conversion system, HEKA Electronics, Germany) for the recording of whole cell currents. The specific test method was described as follows: Circular slides with […] hERG cells growing on the surface were placed in an electrophysiological recording chamber under an inverted microscope. The recording chamber was continuously perfused with extracellular fluid (at approximately 1 mL/min). The conventional whole-cell patch-clamp technique was employed for current recordings throughout the experiment. If not specified, the experiments were carried out at normal room temperature (about 25° C.). The cells were clamped at −80 mV. The cell clamp voltage was depolarized to +30 mV to activate the hERG potassium channel, and then clamped to −50 mV after 5 seconds to eliminate inactivation and produce a tail current. The peak tail current value was used as a value for the magnitude of the hERG current. The potassium current of hERG recorded in the above steps was stabilized by continuous extracellular fluid perfusion in the recording chamber, and the drug to be tested was continuously perfused until the inhibitory effect of the drug on hERG currents had stabilized. The coincidence of the most recent three consecutive current recording traces was typically taken as the criteria for determining whether steady-state conditions were achieved.
Dose-response curves of the test compounds were plotted with % hERG inhibition rate as the y-axis and test compound concentration as the x-axis, to calculate the IC50 values.
For orientation: Block of hERG is tested as a sign of cardiac risk.

[1] abbreviates: HEK293 cells stably expressing hERG, whole-cell patch clamp, read-out: hERG IC50.

Sequence of hERG channel (Q12809 whole entry, the tested form may be a part): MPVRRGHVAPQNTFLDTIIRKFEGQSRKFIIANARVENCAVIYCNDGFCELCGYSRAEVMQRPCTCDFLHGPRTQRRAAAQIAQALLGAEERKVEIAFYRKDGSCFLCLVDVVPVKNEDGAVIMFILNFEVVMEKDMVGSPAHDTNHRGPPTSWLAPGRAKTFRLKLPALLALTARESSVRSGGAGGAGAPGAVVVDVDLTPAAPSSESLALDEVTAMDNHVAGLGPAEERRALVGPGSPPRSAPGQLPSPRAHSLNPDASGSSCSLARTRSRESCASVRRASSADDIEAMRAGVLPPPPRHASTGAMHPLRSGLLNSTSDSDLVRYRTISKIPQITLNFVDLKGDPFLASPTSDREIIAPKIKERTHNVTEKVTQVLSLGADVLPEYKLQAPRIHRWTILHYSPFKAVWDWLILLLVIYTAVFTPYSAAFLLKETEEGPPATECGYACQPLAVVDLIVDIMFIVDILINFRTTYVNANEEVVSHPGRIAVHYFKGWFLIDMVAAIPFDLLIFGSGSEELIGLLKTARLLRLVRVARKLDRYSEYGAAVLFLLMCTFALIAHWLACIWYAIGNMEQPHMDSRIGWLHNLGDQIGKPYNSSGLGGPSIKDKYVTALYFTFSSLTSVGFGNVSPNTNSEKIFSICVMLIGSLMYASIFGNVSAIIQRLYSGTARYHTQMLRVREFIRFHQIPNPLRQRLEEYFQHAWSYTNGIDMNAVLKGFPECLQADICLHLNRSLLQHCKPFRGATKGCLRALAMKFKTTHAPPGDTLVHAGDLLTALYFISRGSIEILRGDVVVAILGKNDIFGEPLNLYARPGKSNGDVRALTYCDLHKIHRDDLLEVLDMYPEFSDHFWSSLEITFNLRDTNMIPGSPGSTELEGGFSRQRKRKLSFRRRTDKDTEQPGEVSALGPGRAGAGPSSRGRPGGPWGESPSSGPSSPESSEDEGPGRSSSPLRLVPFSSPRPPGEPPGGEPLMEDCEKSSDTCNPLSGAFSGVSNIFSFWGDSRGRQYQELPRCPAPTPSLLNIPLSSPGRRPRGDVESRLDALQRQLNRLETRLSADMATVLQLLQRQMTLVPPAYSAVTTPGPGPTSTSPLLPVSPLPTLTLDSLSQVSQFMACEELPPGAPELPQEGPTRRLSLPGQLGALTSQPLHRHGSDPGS

Compound `Nc1cc(NS(=O)(=O)CCO)cc(N2CCC3(CC2)CC3)c1C(=O)Nc1cccc(N2CCC(F)(F)CC2)c1` [Example 1, 2-amino-N-(3-(4,4-difluoropiperidin-1-yl)phenyl)-4-((2-hydroxyethyl)sulfonamide)-6-(6-azaspiro[2.5]octan-6-yl)benzamide] registered an IC50 with HCC1395 cells of more than 5 µM.
`CNc1cc(NS(=O)(=O)CCO)cc(N2CCC3(CC2)CC3)c1C(=O)Nc1cc(C)nc(N2CCC(F)(F)CC2)n1` [Example 4, N-(2-(4,4-difluoropiperidin-1-yl)-6-methylpyrimidin-4-yl)-4-(2-hydroxyethylsulfonamide)-2-methylamino-6-(6-azaspiro[2.5]octan-6-yl)benzamide] gave a half-inhibitory concentration (IC50) with HCC1395 cells of more than 5 µM.
In the case of `O=C(Nc1cccc2c1cc1n2CCOC1)c1ccc(NS(=O)(=O)CCO)cc1N1CCC2(CC1)CC2` [Example 235, N-(3,4-dihydro-1H-[1, 4]oxazino[4,3-a]indol-9-yl)-4-(2-hydroxyethylsulfonamido)-2-(6-azaspiro[2.5]octan-6-yl)benzamide], the half-inhibitory concentration (IC50) in the series on HCC1395 cells (Homo sapiens, HCC1395, 144 h) is more than 5 µM; on hERG channel (setting [1]), 9.84 µM.
As to `O=C(Nc1cccc2c1cc1n2CCOC1)c1ccc(NS(=O)(=O)CCO)cc1N1CCC(=C(F)F)CC1` [Example 319, 2-(4-difluoromethylene)piperidin-1-yl-N-(3,4-dihydro-1H-[1,4]oxazino[4,3-a]indol-9-yl)-4-((2-hydroxyethyl)sulfonamide) benzamide], the IC50 is more than 5 µM in the series on HCC1395 cells and more than 10 µM at hERG channel (setting [1]).
`CC1(C)Cn2c(cc3c(NC(=O)c4ccc(NS(=O)(=O)CCO)cc4N4CCC(=C(F)F)CC4)cccc32)CO1` [Example 370, 2-(4-(difluoromethylene)piperidin-1-yl)-N-(3,3-dimethyl-3,4-dihydro-1H-[1,4]oxazino[4,3-a]indol-9-yl)-4-((2-hydroxyethyl)sulfonamido)benzamide]: the IC50 at hERG channel (setting [1]) was more than 10 µM.
The same measure, in the same setting: to `CC1(C)Cn2c(cc3c(NC(=O)c4ccc(NS(=O)(=O)CCO)cc4N4CCC5(CC4)CC5)cccc32)CO1` [Example 371, N-(3,3-dimethyl-3,4-dihydro-1H-[1,4]oxazino[4,3-a]indol-9-yl)-4-(2-hydroxyethylsulfonamido)-2-(6-azaspiro[2.5]octan-6-yl)benzamide] belongs more than 10 µM.
Take `COc1ccc(NC(=O)c2ccc(NS(=O)(=O)CCO)cc2N2CCC3(CC2)CC3)c2cc3n(c12)CC(C)(C)OC3` [Example 455, 4-((2-hydroxyethyl)sulfonamido)-N-(6-methoxy-3,3-dimethyl-3,4-dihydro-1H-[1,4]oxazinyl[4,3-a]indol-9-yl)-2-(6-azaspiro[2.5]oct-6-yl)benzamide]: the 50% inhibitory concentration (IC50) against hERG channel was more than 10 µM.
Regarding `COc1ccc(NC(=O)c2ccc(NS(=O)(=O)CCO)cc2N2CCC(=C(F)F)CC2)c2cc3n(c12)CC(C)(C)OC3` [Example 465, 2-(4-(difluoromethylene)piperidin-1-yl)-4-((2-hydroxyethyl)sulfonamido)-N-(6-methoxy-3,3-dimethyl-3,4-dihydro-1H-[1,4]oxazinyl[4,3-a]indol-9-yl)benzamide], at hERG channel (setting [1]), the IC50 was more than 10 µM.
Consider `CC1(C)Cn2c(cc3c(NC(=O)c4ccc(NS(=O)(=O)CCO)cc4N4CCC5(CC4)CC5)ccc(OC(F)F)c32)CO1` [Example 523], for which the IC50 on hERG channel (setting [1]) is more than 10 µM.

Values taken from patent US20260070887A1 (Shenzhen Zhongge Biological Technology Co., Ltd., priority 2022, published 2026).
